Entries after “also recorded” stand apart in the source; their conditions may differ.
Test system: canonical Wnt signaling
Assay: Renal fibrosis in STZ-induced diabetic CD-1 mice treated with Wnt inhibitor
Format: in vivo
Description: All experiments were performed in accordance with the National Institute of Health (NIH) Guidelines for the Care of Laboratory Animals. Mice lacking the endothelial glucocorticoid receptor (GR) (known as GR^ECKO) and those lacking this receptor on the Apo E null background (DKO) were generated as previously described (6). The induction of diabetes in CD-1 mice and C57B/L6 mice was performed according to previously established experimental protocols (38-42). Briefly, diabetes was induced in 10-week-old GR^ECKO mice with five consecutive intraperitoneal (IP) doses of streptozotocin (STZ) 50 mg/kg in 10 mmol/L citrate buffer (pH 4.5). Wnt inhibitor (LGK974) was provided to GR^ECKO and control littermate at 5 mg/kg at a frequency of six doses per week for 8 weeks (43). Etomoxir (20 mg/kg) and c75 (15 mg/kg) were dosed (ip) three times per week for 3 weeks in the GR^ECKO and control littermate. A single IP dose of 200 mg/kg STZ was used to induce diabetes in CD-1 mice. Fenofibrate (100 mg/kg), simvastatin (40 mg/kg), were dosed orally for 4 weeks in diabetic CD-1 mice. All mice were sacrificed after 4 weeks of treatment and tissues and blood were harvested. Urine albumin levels were assayed using a Mouse Albumin ELISA Kit (Exocell, Philadelphia, Pa.).
A point-counting method was utilized to evaluate the relative area of the mesangial matrix. PAS-stained glomeruli from each mouse were analyzed using a digital microscope screen grid containing 540 (27×20) points. Masson's trichrome-stained images were evaluated by ImageJ software, and the fibrotic areas were estimated.
Deparaffinized sections were incubated with picrosirius red solution for 1 hour at room temperature. The slides were washed twice with acetic acid solution for 30 seconds per wash. The slides were then dehydrated in absolute alcohol three times, cleared in xylene, and mounted with a synthetic resin. Sirius red staining was analyzed using ImageJ software, and fibrotic areas were quantified.
Paraffin-embedded kidney sections (5 μm thick) were deparaffinized and rehydrated (2 min in xylene, four times; 1 min in 100% ethanol, twice; 1 min in 95% ethanol; 45 s in 70% ethanol; and 1 min in distilled water), and the antigen was retrieved in a 10 mM citrate buffer pH 6 at 98° C. for 60 min. To block the endogenous peroxidase, all sections were incubated in 0.3% hydrogen peroxide for 10 min. The immunohistochemistry was performed using a Vectastain ABC Kit (Vector Laboratories, Burlingame, Calif.). Mouse anti-[…] antibody (1:100) and CPT1a (Abnova; H00001374-DO1P; 1:100) antibody was used. In the negative controls, the primary antibody was omitted and replaced with the blocking solution.
Frozen kidney sections (5 μm) were used for immunofluorescence; double positive labeling with CD31/αSMA, CD31/TGFβR1 and E-cadherin/αSMA was measured. Briefly, frozen sections were dried and placed in acetone for 10 min at −30° C. Once the sections were dried, they were washed twice in phosphate-buffered saline (PBS) for 5 min and then blocked in 2% bovine serum albumin/PBS for 30 min at room temperature. Thereafter, the sections were incubated in primary antibody (1:100) for 1 hour and washed in PBS (5 min) three times. Next, the sections were incubated with the secondary antibodies for 30 min, washed with PBS three times (5 min each), and mounted with mounting medium with DAPI (Vector Laboratories, Burlingame, Calif.). The immune-labeled sections were analyzed by fluorescence microscopy. For each mouse, original magnification of ×400 pictures were obtained from six different areas, and quantification was performed.
To determine whether inhibition of the Wnt signaling pathway could ameliorate the observed fibrosis, LGK974, a small molecule inhibitor of all secreted Wnts (43), was utilized. FIGS. 21A-21B depict the schematic diagram showing the experimental protocol for LGK974 treatment in diabetic CD-1 and UUO mice.

[1] = diabetic CD-1 mice, LGK974 5 mg/kg

SMILES: Cc1cc(-c2ncc(CC(=O)Nc3ccc(-c4cnccn4)cn3)cc2C)ccn1 [LGK974]
- ECM deposition [1]: greatly diminished
- collagen accumulation [1]: greatly diminished
- glomerulosclerosis [1]: greatly diminished
- relative area fibrosis [1]: greatly diminished
- endothelial GR level (diabetic mice, kidney CD31-positive cells): significantly restored
- level of β-catenin (diabetic mice, kidney immunohistochemistry): suppressed
- canonical Wnt signaling (mouse model of diabetic kidney disease): clearly suppressed
- fibrogenic phenotype (mouse model of diabetic kidney disease (b57 legend also UUO mice)): substantially improved; also recorded: abolishes the fibrogenic phenotype

— patent US11369609B2, “Small molecule Wnt inhibitor as treatment for dyslipidemia” (Yale University, priority 2019, dated 2022)
